What was measured:
[1] = target: recombinant His-tag Wip1(2-420) protein (amino acids #2-420) (Homo sapiens (Human), UniProt O15297); experiment: Wip1(2-420) phosphatase enzyme FDP assay; format: biochemical; conditions: fluorescein diphosphate (FDP) substrate, RT 2 hours, fluorescence Ex485/Em535; read-out: WIP1 (Truncated 2-420) FDP Assay: IC50
[2] = target: recombinant His-tag Wip1 full length protein (amino acids #1-605) (Homo sapiens (Human), UniProt O15297); experiment: Wip1 full length phosphatase enzyme FDP assay; format: biochemical; conditions: fluorescein diphosphate (FDP) substrate, RT 2 hours, fluorescence Ex485/Em535
Chain of recombinant His-tag Wip1 full length protein (amino acids #1-605) (O15297 whole entry, the tested form may be a part): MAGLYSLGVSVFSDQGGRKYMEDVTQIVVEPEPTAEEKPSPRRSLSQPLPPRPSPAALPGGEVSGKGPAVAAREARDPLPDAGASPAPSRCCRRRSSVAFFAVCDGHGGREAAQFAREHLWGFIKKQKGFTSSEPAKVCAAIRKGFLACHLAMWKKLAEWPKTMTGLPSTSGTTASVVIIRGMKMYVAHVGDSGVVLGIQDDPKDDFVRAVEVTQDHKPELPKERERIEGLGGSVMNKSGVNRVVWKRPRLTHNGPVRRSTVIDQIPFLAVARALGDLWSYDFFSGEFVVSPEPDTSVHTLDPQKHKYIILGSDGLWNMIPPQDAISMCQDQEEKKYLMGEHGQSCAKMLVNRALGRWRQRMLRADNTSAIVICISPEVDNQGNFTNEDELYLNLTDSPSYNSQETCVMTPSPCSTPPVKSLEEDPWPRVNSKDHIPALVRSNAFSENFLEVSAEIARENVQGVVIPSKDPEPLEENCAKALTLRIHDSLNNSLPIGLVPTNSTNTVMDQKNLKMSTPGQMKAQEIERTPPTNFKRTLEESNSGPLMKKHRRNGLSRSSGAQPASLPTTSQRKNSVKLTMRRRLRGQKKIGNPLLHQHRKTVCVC
Experimental: The Human Wip1 (2-420, aa 2-420) or Wip1 full length (aa 1-605) DNA sequence was codon optimized and synthesized by Genscript for insect cell expression. The open reading frame of Wip1(2-420) with a N-terminal-His6 affinity tag followed by a TEV cleavage site was subcloned sites into the pFastBac1 expression vector. The recombinant bacmid DNA was transfected in Sf9 insect cells for baculovirus production. After 72 hours infection, the Sf9 cells were harvested by centrifugation and resuspended in lysis buffer containing 50 mM Tris/HCl, pH 8.0, 500 mM NaCl, 20% glycerol, Benzonase 0.5% CHAPS and Roche cOmplete™ EDTA free protease inhibitors. Cells were disrupted with microfluidizer and the debris was removed by centrifugation at 185,000 g for 1 hour. The supernatant was subjected to HisTrap FF for affinity purification. Proteins were eluted with a linear gradient of 0-500 mM imidazole in HisTrap buffer containing 50 mM Tris/HCl, pH 8.0, 500 mM NaCl and 20% glycerol, 0.05% CHAPS. The eluted protein was dialyzed against dialysis buffer (20 mM MES, 100 mM NaCl, 20% glycerol, 0.5 mM TCEP, 0.05% CHAPS) followed purification via HiTrap SP HP column. The protein was eluted with a gradient of 100 mM-2 M NaCl in dialysis buffer. His6-[…] was finally concentrated and loaded onto a size-exclusion column (NiLoad 16/600 Superdex 200 pg, GE Healthcare) pre-equilibrated with 50 mM MOPS (pH 7.5), 200 mM NaCl, 20% glycerol, 1 mM TCEP, 0.05% CHAPS and 0.1 mM EGTA. The peak fractions containing purified Nis6-Wip1(2-420) were pooled and concentrated to 1.0 mg/mL and flash frozen at −80° C.
Wip1 Length and Wip1(2-420) Phosphatase Enzyme FDP Assays.
Test compounds (252 mM stock in DMSO) were diluted 3 folds in series in DMSO and 1.2 μl per well were added into 384-well polypropylene black plates (Nunc). Twelve μl per well of Assay Buffer (100 mM NaCl, 50 mM MOPS, pH 7.5, 0.8 mM CHAPS, 0.1 mM EGTA, 30 mM MgCl2, 0.3 mM TCEP, 0.2 mg/mL BSA) was added followed by […] per well of 50.4 nM recombinant His-tag Wip1 full length protein (amino acids #1-605) or recombinant His-tag Wip1(2-420) protein (amino acids #2-420) in Assay Buffer and the plate was incubated at RT (22° C.) for 5 min. Ten mM of fluorescein diphosphate (FDP) in DMSO was diluted to […] in Assay Buffer and […] per well was added to the plate and incubated at RT (22° C.) for 2 hours. […] per well of 64.1 mM EDTA in water were added to stop the enzyme reaction. The plate was centrifuged at 1,200 rpm (Eppendorf 5810R Plate centrifuge) for 1 minute and fluorescence intensity (Ex485/Em535) was measured on Perkin Elmer Victor Reader. EC50 values were calculated using either Prism (GraphPad) or ActivityBase software (IDBS), The IC50 results are provided in Table M.

Chain of recombinant His-tag Wip1(2-420) protein (amino acids #2-420) (O15297 2-420): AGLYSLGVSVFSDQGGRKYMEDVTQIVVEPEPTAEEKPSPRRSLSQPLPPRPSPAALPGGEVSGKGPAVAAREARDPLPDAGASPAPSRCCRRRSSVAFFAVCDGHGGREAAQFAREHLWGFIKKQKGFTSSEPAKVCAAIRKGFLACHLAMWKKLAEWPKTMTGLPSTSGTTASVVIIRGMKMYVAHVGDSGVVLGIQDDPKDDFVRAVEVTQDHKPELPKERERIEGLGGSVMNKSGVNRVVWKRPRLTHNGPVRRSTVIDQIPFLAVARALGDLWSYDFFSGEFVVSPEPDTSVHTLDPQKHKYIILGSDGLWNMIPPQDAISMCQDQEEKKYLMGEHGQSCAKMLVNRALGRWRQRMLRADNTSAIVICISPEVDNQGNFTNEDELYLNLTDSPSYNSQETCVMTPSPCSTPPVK

Q: Which IC50 [1] does the source give for `Cc1ncc(Cl)cc1N[C@@H](C)c1ccc(C(=O)N[C@@H](CC2CCCC2)C(=O)NC(C)(C)C#N)s1` [Compound 65, (2S)-2-({5-[(1S)-1-[(5-chloro-2-methylpyridin-3-yl)amino]ethyl]thiophen-2-yl}formamido)-N-(1-cyano-1-methylethyl)-3-cyclopentylpropanamide] here?
A: Its IC50 is 8 nM.

Q: What about the IC50 [2] of the same compound?
A: The IC50 was 10 nM.

Q: How did the IC50 [1] turn out when `Cc1ncc(Cl)cc1N[C@@H](C)c1ccc(C(=O)N[C@@H](CC2CCCC2)C(=O)NC2(C(F)(F)F)CC2)s1` [Compound 42, (2S)-2-({5-[(1S)-1-[(5-chloro-2-methylpyridin-3-yl)amino]ethyl]thiophen-2-yl}formamido)-3-cyclopentyl-N-[1-(trifluoromethyl)cyclopropyl]propanamide] was run?
A: The IC50 was 12 nM.

Q: What about the IC50 [2] of the same compound?
A: Its IC50 is 15 nM.

Q: What does the source list for `Cc1ncc(Cl)cc1N[C@@H](C)c1ccc(C(=O)N[C@@H](CC2CCCC2)C(=O)NC23CC(C(N)=O)(C2)C3)s1` [Compound 45, 3-[(2S)-2-({5-[(1S)-1-[(5-chloro-2-methylpyridin-3-yl)amino]ethyl]thiophen-2-yl}formamido)-3-cyclopentylpropanamido]bicyclo[1.1.1]pentane-1-carboxamide]?
A: IC50 [1]: 7 nM; IC50 [2]: 9 nM

Q: Which IC50 [1] does the source give for `C[C@H](Nc1cc(Cl)cnc1C1CC1)c1ccc(C(=O)N[C@@H](CC2CCCC2)C(=O)NC2CC2)s1` [Compound 70, (2S)-2-({5-[(1S)-1-[(5-chloro-2-cyclopropylpyridin-3-yl)amino]ethyl]thiophen-2-yl}formamido)-3-cyclopentyl-N-cyclopropylpropanamide] here?
A: Its IC50 is 6 nM.

Q: And the IC50 [2]?
A: Its IC50 is 8 nM.

Q: How did the IC50 [1] turn out when `CC[C@H](Nc1cc(Cl)cnc1C)c1ccc(C(=O)N[C@@H](CC2CCCC2)C(=O)N[C@@H]2CC2(F)F)s1` [Compound 47, (2S)-2-({5-[(1S)-1-[(5-chloro-2-methylpyridin-3-yl)amino]propyl]thiophen-2-yl}formamido)-3-cyclopentyl-N-[(1R)-2,2-difluorocyclopropyl]propanamide] was run?
A: The IC50 was 11 nM.

Q: What about the IC50 [2] of the same compound?
A: Its IC50 is 11 nM.

Q: How did the IC50 [1] turn out when `C[C@@H](Nc1ccc(F)c(Cl)c1)c1ccc(C(=O)N[C@@H](CC2CCCC2)C(=O)NC2CC2)s1` [Compound 7, 5-[(1R)-1-(3-chloro-4-fluoro-anilino)ethyl]-N-[(1S)-1-(cyclopentylmethyl)-2-(cyclopropylamino)-2-oxo-ethyl]thiophene-2-carboxamide] was run?
A: The IC50 was 80 nM.

Q: What about the IC50 [2] of the same compound?
A: Its IC50 is 68 nM.

Q: How did the IC50 [1] turn out when `Cc1ncc(Cl)cc1N[C@@H](C)c1ccc(C(=O)N[C@@H](CC2CCCC2)C(=O)NC2(C#N)CC2)s1` [Compound 34, (2S)-2-({5-[(1S)-1-[(5-chloro-2-methylpyridin-3-yl)amino]ethyl]thiophen-2-yl}formamido)-N-(1-cyanocyclopropyl)-3-cyclopentylpropanamide] was run?
A: Its IC50 is 17 nM.

Q: What about the IC50 [2] of the same compound?
A: The IC50 was 34 nM.

Q: How did the IC50 [1] turn out when `Cc1ncc(Cl)cc1NCc1ncc(C(=O)N[C@@H](CC2CCCCC2)C(=O)Nc2ccncc2)s1` [Compound 300, 2-[[(5-chloro-2-methyl-3-pyridyl)amino]methyl]-N-[(1S)-1-(cyclohexylmethyl)-2-oxo-2-(4-pyridylamino)ethyl]thiazole-5-carboxamide] was run?
A: Its IC50 is 6 nM.

Q: What about the IC50 [2] of the same compound?
A: Its IC50 is 15 nM.

Q: Which IC50 [1] does the source give for `CC[C@H](Nc1cc(Cl)cnc1C)c1ccc(C(=O)N[C@@H](CC2CCCC2)C(=O)NC23CC(C2)C3)s1` [Compound 68, (2S)-N-{bicyclo[1.1.1]pentan-1-yl}-2-({5-[(1S)-1-[(5-chloro-2-methylpyridin-3-yl)amino]propyl]thiophen-2-yl}formamido)-3-cyclopentylpropanamide] here?
A: The IC50 was 6 nM.

Q: And the IC50 [2]?
A: Its IC50 is 8 nM.

Q: Which results are given for `Cc1ncc(Cl)cc1N[C@@H](C)c1ccc(C(=O)N[C@@H](CC2CCCC2)C(=O)Nc2cccc(S(C)(=O)=O)c2)s1` [Compound 41, (2S)-2-({5-[(1S)-1-[(5-chloro-2-methylpyridin-3-yl)amino]ethyl]thiophen-2-yl}formamido)-3-cyclopentyl-N-(3-methanesulfonylphenyl)propanamide]?
A: IC50 [1]: 5 nM; IC50 [2]: 7 nM

Q: What does the source list for `CCNC(=O)[C@H](CC1CCCC1)NC(=O)c1ccc([C@H](C)Nc2cc(Cl)cnc2C)s1` [Compound 77, (2S)-2-({5-[(1S)-1-[(5-chloro-2-methylpyridin-3-yl)amino]ethyl]thiophen-2-yl}formamido)-3-cyclopentyl-N-ethylpropanamide]?
A: IC50 [1]: 6 nM; IC50 [2]: 10 nM

Q: What does the source list for `CCc1ncc(Cl)cc1N[C@H](C)c1ccc(C(=O)N[C@@H](CC2CCCC2)C(=O)NC2CC2)s1` [Compound 79, (2S)-2-({5-[(1R)-1-[(5-chloro-2-ethylpyridin-3-yl)amino]ethyl]thiophen-2-yl}formamido)-3-cyclopentyl-N-cyclopropylpropanamide]?
A: IC50 [1]: 223 nM; IC50 [2]: 308 nM

Q: `Cc1ncc(Cl)cc1NC(C)c1ccc(C(=O)N[C@@H](CC2CCCC2)C(=O)NC2CC2(F)F)s1` (stereo partly drawn) [Compound 13, (2S)-2-[(5-{1-[(5-chloro-2-methylpyridin-3-yl)amino]ethyl}thiophen-2-yl)formamido]-3-cyclopentyl-N-(2,2-difluorocyclopropyl)propanamide] was tested. Which IC50 [1] did it give?
A: The IC50 was 10 nM.

Q: What about the IC50 [2] of the same compound?
A: The IC50 was 11 nM.

Q: What does the source list for `Cc1ncc(Cl)cc1N[C@@H](C)c1ccc(C(=O)N[C@@H](CC2CCCC2)C(=O)NC2CC2)s1` [Compound 8, 5-[(1S)-1-[(5-chloro-2-methyl-3-pyridyl)amino]ethyl]-N-[(1S)-1-(cyclopentylmethyl)-2-(cyclopropylamino)-2-oxo-ethyl]thiophene-2-carboxamide]?
A: IC50 [1]: 8 nM; IC50 [2]: 11 nM

Q: With `Cc1cc(NC(=O)[C@H](CCC(C)C)NC(=O)c2ccc([C@H](C)Nc3cc(Cl)cnc3C)s2)ccn1` [Compound 210, (2S)-2-({5-[(1S)-1-[(5-chloro-2-methylpyridin-3-yl)amino]ethyl]thiophen-2-yl}formamido)-5-methyl-N-(2-methylpyridin-4-yl)hexanamide] as the compound, how does the IC50 [1] read?
A: Its IC50 is 7 nM.

Q: What about the IC50 [2] of the same compound?
A: Its IC50 is 10 nM.

Q: What does the source list for `Cc1ncc(Cl)cc1N[C@@H](C)c1ccc(C(=O)N[C@@H](CC2CCCC2)C(=O)NC2CC(C#N)C2)s1` (stereo partly drawn) [Compound 33, (2S)-2-({5-[(1S)-1-[(5-chloro-2-methylpyridin-3-yl)amino]ethyl]thiophen-2-yl}formamido)-N-(3-cyanocyclobutyl)-3-cyclopentylpropanamide]?
A: IC50 [1]: 8 nM; IC50 [2]: 11 nM

Q: Which results are given for `C[C@@H](Nc1cccc(Cl)c1)c1ccc(C(=O)N[C@@H](CC2CCCC2)C(=O)NC2CC2)s1` [Compound 1, 5-[1-(3-chloroanilino)ethyl]-N-[(1S)-1-(cyclopentylmethyl)-2-(cyclopropylamino)-2-oxo-ethyl]thiophene-2-carboxamide]?
A: IC50 [1]: 6 nM; IC50 [2]: 9 nM

Q: Which results are given for `Cc1cc(NC(=O)[C@H](CC2CCCC2)NC(=O)c2cnc([C@@H](C)Nc3cccc(Cl)c3)s2)ccn1` [Compound 120, (2S)-2-({2-[(1R)-1-[(3-chlorophenyl)amino]ethyl]-1,3-thiazol-5-yl}formamido)-3-cyclopentyl-N-(2-methylpyridin-4-yl)propanamide]?
A: IC50 [1]: 7 nM; IC50 [2]: 11 nM

Q: What does the source list for `Cc1ncc(Cl)cc1N[C@@H](C)c1ccc(C(=O)N[C@@H](CC2CCCC2)C(=O)N[C@@H]2C[C@@H]2F)s1` [Compound 30, (2S)-2-({5-[(1S)-1-[(5-chloro-2-methylpyridin-3-yl)amino]ethyl]thiophen-2-yl}formamido)-3-cyclopentyl-N-[(1R,2S)-2-fluorocyclopropyl]propanamide]?
A: IC50 [1]: 6 nM; IC50 [2]: 10 nM

Q: For `Cc1cc(NC(=O)[C@H](CC2CCCC2)NC(=O)c2ccc([C@H](C)Nc3cc(Cl)cnc3C)s2)ccn1` [Compound 73, (2S)-2-({5-[(1S)-1-[(5-chloro-2-methylpyridin-3-yl)amino]ethyl]thiophen-2-yl}formamido)-3-cyclopentyl-N-(2-methylpyridin-4-yl)propanamide], which IC50 [1] is on record?
A: Its IC50 is 4 nM.

Q: And the IC50 [2]?
A: The IC50 was 8 nM.

Source: US20240116910A1, “Heterocycles as WIP1 Inhibitors” (PMV Pharmaceuticals, Inc., priority 2022, published 2024)
